“Also recorded” adds a separate entry of the source.
Assays:
[1] = Plasma BCKA/BCAA concentrations in wild-type and PP2Cm-KO mice; assay type: in vivo, mouse; conditions: BT2 vs vehicle
Method: PP2Cm germ-line knockout (PP2Cm-KO) mice were generated as previously described (Lu et al. (2009), supra). PP2Cm KO mice were backcrossed for more than 8 generations into a C57BL/6 background. Wild type C57BL/6 mice and PP2Cm KO mice were housed at 22° C. with a 12-hour light, 12-hour dark cycle with free access to water and standard chow. Studies were performed with male mice. Human cohorts of dilated cardiomyopathy and controls were obtained from Columbia and Duke with Institutional Review Board approval. […]
BCKA Measurements in mouse Plasma: The method published by Olson et al. (2013), supra was followed with modification. […] The samples were re-suspended in 50:50 MeOH:5 mM NH4 acetate and analyzed by LC-MS/MS using a Sciex 3200 Q-Trap coupled to a Shimadzu Prominence LC. An Agilent C18 XDB 5 micron packing column (50×4.6 mm) was used for chromatography with the following conditions: Buffer A: 5 mM NH4 acetate, Buffer B: methanol, 0-2.0 min 50% B, 2.0-2.5 min gradient to 100% B, 2.5-3.5 min 100% B, 3.5-3.6 min gradient to 50% B, 3.6-4.6 min 50% B. The derivatized keto acids were detected with the mass spectrometer in positive MRM (multiple reaction monitoring) mode using the following transitions: KIC 203.1 to 161.1 (retention time: 2.91 min); KIV 189.145 to 119.2 (retention time 2.84 min); KMV 203.065 to 174.2 (retention time 2.99 min); [^13C] […]

BCKD [2] = assay: BCKD activity in tissues of ob/ob mice treated with BT2; assay type: in vivo, mouse; conditions: BT2 40 mg/kg/day oral gavage 10 weeks
Method: (§1) Animals were euthanized using carbon dioxide asphyxiation followed by cervical dislocation and then dissected. Blood was harvested by cardiac puncture and centrifuged to isolate plasma which was stored at −80° C. Acidified citrate dextrose was used as an anticoagulant. Immediately after blood collection, heart, liver, kidneys, and both hind leg quadriceps muscles were removed and snap frozen in liquid nitrogen.
(§2) Assays for the BCKD activity were carried out as prescribed previously (Tso et al. (2014), supra). Briefly, frozen tissues were thawed and homogenized in a homogenizing buffer (30 mM KPi, pH 7.5, 3 mM EDTA, 5 mM DTT, 1 mM KIC, 3% fetal bovine serum, 5% Triton X-100, and 1 μM leupeptin). Samples were spun at 25,000×g and supernatants were collected. Diluted samples were placed in 24-well assay plates with assay buffer (30 mMKPi, pH7.5, 0.4 mM CoA, 3 mM NAD, 5% fetal bovine serum, 2 mM thiamine diphosphate, 2 mM MgCl2, and 65 μg of human E3). Keto [1-^14C] isovalerate substrate was added and assay plates were incubated at 37° C. for 30 min. 20% TCA solution was added to stop the reactions. Assay plates were incubated further at 37° C. for 45 min. ^14CO2 trapped on 2 M NaOH soaked filter wicks was counted in a liquid scintillation counter.

BCKD [3] = assay: BCKD activity in tissues of high-fat-diet-induced obese (DIO) mice treated with BT2; assay type: in vivo, mouse; conditions: BT2 40 mg/kg/day 8 weeks oral gavage
Method: as §1, §2

[4] = tested on: pressure-overloaded mouse heart; assay: TAC heart failure model with preexisting dysfunction, BT2 from 2 weeks post-TAC for 6 weeks, echocardiography and survival; assay type: in vivo
Method: In mice, transverse aortic constriction (TAC) was performed as described (Lee et al. (2011) Circulation Research 109:1332-1341) in anesthetized (pentobarbital 60 mg/kg, IP) and ventilated mice (age 12-14 weeks) to induce hypertrophy and heart failure. After left anterolateral thoracotomy with blunt dissection through the intercostal muscles, aortic constriction was induced by ligating the transverse aorta around a 27½-gauge blunt needle using 6-0 silk suture. The needle was subsequently removed. Sham-operated mice underwent a similar surgical procedure without constriction of the aorta. All mice were maintained in the same environment with regular lab chow and water ad libitum. At the end of the experiments, animals were euthanized and the hearts and lungs were removed and weighed. Hearts were dissected and tissues were either immediately immersed into 4% buffered formaldehyde or quickly frozen in liquid nitrogen for further experiments.

[5] = Cardiac BCAA and BCKA assay post-TAC; assay type: in vivo, mouse; conditions: post-TAC heart, BT2 6 weeks
Method: BCAA and BCKA concentration in mouse heart tissue were determined by mass spectrometer using the following transition s: KIC 203.1 to 161.1 (retention time: 2.91 min); KIV 189.145 to 119.2 (retention time 2.84 min); KMV 203.065 to 174.2 (retention time 2.99 min); [^13C] KIV 194.109 to 120.1 (retention time: 2.84 min). Val 174.1/72.1 (retention time 3.2 min), Leu 188.1/86.1 (retention time 5.9 min), Ile 188.2/86.1 (retention time 5.7 min).

[6] = after 5 weeks post-TAC (3 weeks post-treatment), speckle tracking
[7] = by 2 weeks of BT2 treatment (4 weeks post-TAC)

O=C(O)c1sc2cc(Cl)ccc2c1Cl [BT2, 3,6-dichlorobenzo[b]thiophene-2-carboxylic acid]
plasma BCAA level [1]: modest impact; also recorded: reduced | plasma BCKA level [1]: markedly reduced | BCKD activity in different tissues including white adipose tissues (BCKD [2]): significantly enhanced | BCKD activity in heart, muscle liver and kidney (BCKD [3]): augments | longitudinal early diastolic strain rate (SRe) ([4]; 5 weeks post-TAC): remarkably improved | chamber size (ΔLVIDs, ΔLV Vols) ([4]; BT2 treated mouse hearts post-TAC): stable maintenance | myocardial strain [4, 6]: significantly improved | myocardial strain rate [4, 6]: significantly improved | increase of EF from baseline (week 2) [4, 7]: 6.0±3.4 points | increase of FS from baseline (week 2) [4, 7]: 3.5±1.9 points | systolic dysfunction ([4]; continuation of BT2 for additional 4 weeks): additional alleviations | beneficial effect on SRe at radial circumferential planes ([4]; during the treatment period): dispersity | mouse survival ([4]; from two weeks after treatment): improved | systolic velocity and displacement in longitudinal and radial planes ([4]; post-TAC): increase | systolic function ([4]; pressure-overloaded mouse heart, six weeks treatment): preserved | pressure-overload-induced cardiac structural remodeling ([4]; six weeks treatment): alleviated | cardiac intra-tissue concentrations of BCAA and BCKA [5]: significant reduced
